# Assays:
# Rhinovirus strain 1B = assay: Cytoprotection assay, Rhinovirus; assay type: cell-based; conditions: Enterovirus, MRC5
# RSV strain Long = assay: Cytoprotection assay, RSV; assay type: cell-based; conditions: human respiratory syncytial virus, Vero
# Adenovirus Type 1 = assay: Cytoprotection assay, Adenovirus; assay type: cell-based; conditions: Adenovirus Type I, HeLa
# [1] = Cytotoxicity evaluation of the HCMV plaque reduction assay; assay type: cell-based; conditions: human, MRC-5 cells; MRC-5, HCMV AD169 assay
# Method: MRC-5 cells ((ATCC CCL-171) embryonal lung fibroblast, diploid, human) were used in plaque reduction assays with HCMV Strain AD169 (ATCC VR-538) and in cytoprotection assays with Rhinovirus strain 1B. They were grown in EMEM supplemented with 10% FBS, 0.1 mM non-essential amino acids, 1.0 mM sodium pyruvate, 2.0 mM L-Glutamine, 100 units/ml Penicillin and 100 μg/ml Streptomycin.
# HCMV Plaque Reduction Assay: MRC-5 cells were seeded at 75,000 cells/well in 24 well plates. The plates were incubated overnight at 37° C. and 5% CO2. The following day, media was aspirated and approximately 100 plaque forming units (pfu) of HCMV AD169 was added to 21 wells of each plate in a volume of 200 μL of assay medium (MRC-5 growth medium containing 2% FBS rather than 10% FBS). The remaining three wells of each plate served as cellular control wells and received 200 μL of assay medium without virus. […] After a six day incubation period, cell viability was determined using CellTiter 96 Aqueous One Solution (Promega Corporation). […] Adhesive plate sealers were used in place of the lids, the sealed plates were inverted several times to mix the soluble formazan product and the plate was read spectrophotometrically at 490 and 650 nm with a Molecular Devices Vmax plate reader. […] A therapeutic (selectivity) index (TI) for each active compound was determined by dividing the TC50 by the IC50.
# [2] = Protide stability in normal plasma, mouse; assay type: in vitro ADME; conditions: 37° C.
# Method: Selected nucleoside 5′-phosphoramidates were examined for stability in human, cynomolgous monkey, rat and mouse plasma at 37° C. at both 30 min and 90 min time points.
# Protide Stability in Normal Plasma: Plasma samples were prepared for analysis as follows. 50 μl of each test sample were distributed a 96-well V-bottom plate. 200 μl of acetonitrile containing 10 ng/ml of an internal standard was added to each plasma sample. The precipitated samples were centrifuged at 2500 rpm, 4° C. for 20 minutes in a Sorvall RT6000S centrifuge (Thermo Scientific, Waltham Mass.) and 100 μl of supernatant from each sample was transferred into a 96 deep well plate followed by the addition of 100 μl H2O to each sample. Samples were covered, mixed well by vortexing and maintained at 2-8° C. before and during analysis. 15 μl of each test sample was analyzed for protide concentrations by liquid chromatography coupled to tandem mass spectrometry (LC-MS/MS). Liquid chromatography was performed with an Agilent 1100 Series HPLC system equipped with a Synergi 4 μm Polar-RP, 30×2.0 mm column (Phenomenex, Torrance, Calif.). The HPLC system was coupled to an API 4000 triple quadrupole mass spectrometer (Applied Biosystems, Framingham, Mass.). Mass spectrometry was performed in positive ion mode and data was analyzed using Analyst® v1.4.2 software (Applied Biosystems, Framingham, Mass.). Data was presented as the percentage of compound recovered as compared to the 0 time point control.
# [3] = Compound cytotoxicity in cytoprotection assay (MTS), MRC-5; conditions: human, MRC-5 cells
smiles,measurement,setting,value
COc1nc(N)nc2c1ncn2C1O[C@H](COP(=O)(N[C@@H](C)C(=O)OCC(C)(C)C)Oc2cccc3ccccc23)[C@@H](O)[C@@]1(C)O (stereo partly shown) [Example 20],EC50,Rhinovirus strain 1B,> 10 µM
same,EC50,RSV strain Long,> 10 µM
same,EC50,Adenovirus Type 1,> 10 µM
same,CC50 at 6 days,[1],1.57 µM
same,% Compound Remaining Compared to %100 Acetonitrile Control,[2]; 30 min,0%
same,% Compound Remaining Compared to %100 Acetonitrile Control,[2]; 1.5 h,0%
same,CC50 at 7 days,[3],3.08 µM

# Source: patent US8759318B2, “Phosphoramidate derivatives of guanosine nucleoside compounds for treatment of viral infections” (Inhibitex, Inc., priority 2009, dated 2014)
